The text below walks through data of US9249128B2 (priority 2010, dated 2016).

The structures appear in SMILES notation. Read-outs that look alike come from different tables or passages of the source. A value given as a limit tells only on which side of the number the result lay.

Assay [1] has as its target T1, KIAA1363 (Homo sapiens, UniProt Q6PIU2).
T1 sequence (Q6PIU2 1-408): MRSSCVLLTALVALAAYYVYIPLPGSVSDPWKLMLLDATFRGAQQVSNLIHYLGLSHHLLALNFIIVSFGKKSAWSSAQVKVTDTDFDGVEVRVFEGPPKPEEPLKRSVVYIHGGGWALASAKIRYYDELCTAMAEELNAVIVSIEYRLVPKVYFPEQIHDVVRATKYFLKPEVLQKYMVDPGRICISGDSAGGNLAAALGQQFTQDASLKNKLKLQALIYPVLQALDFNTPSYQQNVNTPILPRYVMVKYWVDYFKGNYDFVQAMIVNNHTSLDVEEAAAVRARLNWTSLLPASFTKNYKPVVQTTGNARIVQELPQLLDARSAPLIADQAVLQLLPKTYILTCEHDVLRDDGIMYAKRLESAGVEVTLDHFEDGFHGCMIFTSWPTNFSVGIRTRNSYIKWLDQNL
Put plainly: Inhibition of FP-rhodamine labeling of KIAA1363 by JW551 (FIG. 17). The class given is biochemical. Particulars: selective over other serine hydrolase enzymes.

A further assay concerns the target T2, AChE (Mus musculus, UniProt P21836).
T2 construct: 20 μg of cell lysate or mouse brain membrane proteome; from tissue; host or cells: mouse brain (membrane proteome)
T2 sequence (P21836 32-614): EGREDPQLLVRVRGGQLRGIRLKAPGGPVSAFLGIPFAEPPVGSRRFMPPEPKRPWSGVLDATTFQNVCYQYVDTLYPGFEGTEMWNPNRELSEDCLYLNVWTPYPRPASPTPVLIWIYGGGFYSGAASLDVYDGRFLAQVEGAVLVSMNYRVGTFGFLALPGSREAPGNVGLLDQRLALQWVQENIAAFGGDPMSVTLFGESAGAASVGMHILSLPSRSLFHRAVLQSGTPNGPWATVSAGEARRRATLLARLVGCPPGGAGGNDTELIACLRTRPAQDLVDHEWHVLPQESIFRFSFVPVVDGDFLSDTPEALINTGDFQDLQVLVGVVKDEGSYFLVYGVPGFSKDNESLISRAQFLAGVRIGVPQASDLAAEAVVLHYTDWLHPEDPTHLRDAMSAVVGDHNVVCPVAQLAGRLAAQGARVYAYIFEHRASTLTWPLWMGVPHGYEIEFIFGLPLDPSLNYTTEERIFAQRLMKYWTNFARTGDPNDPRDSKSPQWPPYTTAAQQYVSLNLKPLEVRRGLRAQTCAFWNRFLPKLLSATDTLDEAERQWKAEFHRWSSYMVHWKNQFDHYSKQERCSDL
Kind of assay: AChE activity assay with acetylthiocholine in mouse brain proteome. Particulars: acetylthiocholine hydrolysis in mouse brain membrane proteome. The class given is biochemical. How it is done:
AChE activity was measured using a method similar to that described previously (Ellman et al., 1961). Briefly, 50 μL of 10 mM acetylthiocholine was added to 200 μL of PBS containing 2 mM DTNB and 20 μg of cell lysate or mouse brain membrane proteome. Absorbance was measured at 412 nm over 5 min, and the rate of product accumulation was calculated from the slope of the absorbance over time. For assays involving preincubation with inhibitors, the reactions were prepared without acetylthiocholine and JW480 was incubated at the indicated concentration for 30 min at 37° C. Acetylthiocholine was then added and the assay was carried out exactly as described above.

In assay [2] the target is T3, KIAA1363 (Mus musculus, UniProt Q8BLF1).
T3 construct: ABPP analysis of KIAA1363 activity in mouse brain membrane proteome; from tissue; host or cells: mouse brain (membrane fraction)
T3 sequence (Q8BLF1 1-408): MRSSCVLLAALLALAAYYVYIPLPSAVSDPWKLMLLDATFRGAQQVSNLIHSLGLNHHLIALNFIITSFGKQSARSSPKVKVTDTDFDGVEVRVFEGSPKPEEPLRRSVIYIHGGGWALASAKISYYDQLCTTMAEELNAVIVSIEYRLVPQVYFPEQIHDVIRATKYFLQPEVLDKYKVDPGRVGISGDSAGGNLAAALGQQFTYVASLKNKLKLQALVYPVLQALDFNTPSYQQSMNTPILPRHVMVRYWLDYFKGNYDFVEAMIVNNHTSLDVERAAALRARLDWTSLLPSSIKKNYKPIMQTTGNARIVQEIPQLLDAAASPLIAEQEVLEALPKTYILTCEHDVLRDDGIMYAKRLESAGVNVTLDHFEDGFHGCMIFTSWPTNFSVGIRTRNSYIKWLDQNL
Kind of assay: Gel-based competitive ABPP of KIAA1363 in mouse brain membrane proteome (FP-rhodamine). The class given is biochemical. How it is done:
In various embodiments, the invention provides a method of inhibiting a serine hydrolase, comprising contacting the hydrolase with a compound of formula (I), e.g., a compound selected from set of compounds shown in Table 1, below. […] IC50 values were derived from ABPP analysis of KIAA1363 activity in mouse brain membrane proteome and are averages of three replicates. Inhibitors were added to the proteome for 30 min before addition of FP-rhodamine (1 μM, 30 min).
Tissues were Dounce-homogenized in PBS, pH 7.4, followed by a low-speed spin (1,400 g, 5 min) to remove debris. The supernatant was then subjected to centrifugation (100,000×g, 45 min) to provide the cytosolic fraction in the supernatant and the unsoluble fraction as a pellet. The pellet was washed and resuspended in PBS buffer by sonication. Total protein concentration in each fraction was determined using a protein assay kit (Bio-Rad). Samples were stored at −80° C. until use.
(§1) For ABPP experiments, cell lysate and tissue proteomes were treated with 1 μM FP-rhodamine for 30 min at room temperature (50 μL total reaction volume) as described previously (Nomura et al., 2010). Reactions were quenched with one volume of standard 4×SDS/PAGE loading buffer (reducing), separated by SDS/PAGE (10% acrylamide), and visualized in-gel with a Hitachi FMBio IIe flatbed fluorescence scanner (MiraiBio). Inhibitors were preincubated prior (30 min or 4 h at 37° C. in vitro or in situ, respectively) to the addition of FP-rhodamine.

The target of another assay is T4, HSL (Mus musculus, UniProt P54310).
T4 construct: ABPP analysis of HSL from a rosiglitazone-differentiated 3T3-10T1/2 adipocyte proteome; endogenous in cells; host or cells: rosiglitazone-differentiated 3T3-10T1/2 adipocytes
T4 sequence (P54310 1-759): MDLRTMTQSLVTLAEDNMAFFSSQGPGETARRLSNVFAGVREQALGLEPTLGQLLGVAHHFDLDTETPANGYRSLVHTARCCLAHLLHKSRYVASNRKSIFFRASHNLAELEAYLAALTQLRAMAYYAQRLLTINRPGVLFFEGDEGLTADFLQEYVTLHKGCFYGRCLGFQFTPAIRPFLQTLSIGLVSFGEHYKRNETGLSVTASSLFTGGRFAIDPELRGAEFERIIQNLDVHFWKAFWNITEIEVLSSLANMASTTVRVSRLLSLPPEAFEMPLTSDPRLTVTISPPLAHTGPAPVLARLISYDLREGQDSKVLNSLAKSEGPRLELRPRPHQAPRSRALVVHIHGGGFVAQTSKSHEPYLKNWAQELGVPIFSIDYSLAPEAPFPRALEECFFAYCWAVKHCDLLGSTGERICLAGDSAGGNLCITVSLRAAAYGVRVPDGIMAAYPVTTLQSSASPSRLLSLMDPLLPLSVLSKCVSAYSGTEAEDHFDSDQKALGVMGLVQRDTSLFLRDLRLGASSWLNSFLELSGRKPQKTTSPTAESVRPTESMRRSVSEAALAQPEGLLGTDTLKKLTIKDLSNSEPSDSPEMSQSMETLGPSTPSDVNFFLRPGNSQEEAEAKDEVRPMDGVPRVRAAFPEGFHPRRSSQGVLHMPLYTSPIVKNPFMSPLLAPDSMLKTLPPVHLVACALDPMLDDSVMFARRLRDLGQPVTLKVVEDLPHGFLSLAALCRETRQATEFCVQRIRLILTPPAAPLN
Kind of assay: Competitive ABPP of HSL in rosiglitazone-differentiated 3T3-10T1/2 adipocyte proteome. The class given is biochemical. How it is done:
as §1

Assay [3] deals with T3, KIAA1363. Kind of assay: In vivo labeling of KIAA1363 by JW576 in mouse heart (gel-based ABPP). How it is done: (§2) For ABPP experiments, cell lysate and tissue proteomes were treated with 1 μM FP-rhodamine for 30 min at room temperature ([…]). Reactions were quenched with one volume of standard 4×SDS/PAGE loading buffer (reducing), separated by SDS/PAGE (10% acrylamide), and visualized in-gel with a Hitachi FMBio IIe flatbed fluorescence scanner (MiraiBio). For experiments involving a preincubation with JW576 in the presence or absence of the non-fluorescent competitor JW480, the reactions were prepared without FP-rhodamine. JW576 were added at the indicated concentration and incubated for the indicated time at 37° C. FP-rhodamine was then added and the reaction was carried out exactly as described above.
Tissues were dounce-homogenized in PBS, pH 7.5, followed by a low-speed spin (1,400 g, 5 min) to remove debris. The supernatant was then subjected to centrifugation (64,000 g, 45 min) to provide the cytosolic fraction in the supernatant and the membrane fraction as a pellet. The pellet was washed and resuspended in PBS buffer by sonication. Total protein concentration in each fraction was determined using a protein assay kit (Bio-Rad). Samples were stored at −80° C. until use.
JW576 was prepared as a homogenoeus PEG solution by vortexing, sonicating, and gently heating neat compound directly into PEG300 (Fluka) (4 mg ml^−1 final concentration. Male C57BI/6J (<6 months old, 20-28 g) and Male KIAA1363-KO mice were treated with JW576 or a PEG vehicle by intraperitoneal injection. After the indicated amount of time, mice were anesthetized with isoflurane and killed by decapitation. Tissues were removed, flash frozen in liquid N2 and stored at −80° C. prior to processing for ABPP gel analysis as indicated above. Animal experiments were conducted in accordance with the guidelines of the institutional Animal Care and Use Committee of The Scripps Research Institute.

Assay [4] deals with T1, KIAA1363. Put plainly: Gel-based competitive ABPP of living PC3 cells, in situ treatment. The class given is cell-based. On the set-up: PC3 cancer cells, which have high endogenous KIAA1363 levels; endogenous in cells; host or cells: PC3. How it is done: Inhibitors were dissolved in DMSO and diluted into media or buffer prior to cell or proteome treatment, respectively. For in vitro treatment, final DMSO concentration was 4%. For in situ treatments of cells for ABPP, lipid measurements, migration, cell-survival, and invasion assays, 2×10^6 cells were seeded in 6 cm dishes (˜100% confluency) 24 h prior to inhibitor pre-treatment (in DMSO at 0.1% final concentration) in serum-free media (3 mL) for the designated time before harvesting cells for ABPP or lipid measurements or before the initiation of migration, cell-survival, and invasion assays.
as §1
JW576 was dissolved in DMSO and diluted into media or buffer prior to cell or proteome treatment, respectively. For in vitro treatment, final DMSO concentration was 4%. For in situ treatments of cells for ABPP, 2×10^6 cells were seeded in 6 cm dishes (100% confluency) 24 hr prior to JW576 pretreatment with or without JW480 (in DMSO at 0.1% final concentration) in serum-free media (3 ml) for the designated time before harvesting cells for ABPP.
as §2

Assay [5] addresses T1, KIAA1363. Kind of assay: 2-acetyl MAGE hydrolytic activity assay in cancer cells treated in situ. The class given is cell-based. Also noted: PC3 cancer cells, which have high endogenous KIAA1363 levels; endogenous in cells; host or cells: PC3 (2-acetyl MAGE assay also DU145 and SKOV3).
Method: Cells were pretreated with KIAA1363 inhibitors in situ (for 4 hr in serum-free F-12K media before harvesting cells by scraping) or in vitro (for 30 min at 37° C. in PBS) before addition of 2-acetyl MAGE (100 μM) to cell lysates at room temperature for 30 min in a volume of 200 μL. Reactions were quenched with 600 μL 2:1 chloroform:methanol and 10 nmol of C12:0 MAGE internal standard was added. The organic layer was extracted and 30 μL injected into an Agilent 1100-MSD LC-MS. LC-MS settings were as previously described (Chiang et al., 2006). Product levels (C16:0 MAGE) were quantified in relation to the internal standard. Specific activity was determined during the linear phase of enzymatic reactions (i.e., less than 20% substrate utilized).
Cell lysates (20 μg) in Tris buffer were then incubated with lipid (100 mM, e.g., 2-acetyl MAGE for KIAA1363 activity) at room temperature for 30 min in a volume of 200 ml. Reactions were quenched with 600 ml 2:1 chloroform:methanol and 10 nmol of C12:0 MAGE internal standard was added. […] Product levels (C16:0 MAGE for KIAA1363 activity) were quantified in relation to internal standard levels and standard curves generated between varying lipid concentration versus constant internal standard levels. Specific activity was determined during the linear phase of enzymatic reactions (i.e., less than 20% substrate utilized)

Consider `CC(C)c1ccccc1OC(=O)NCCOc1ccc2c(C(F)(F)F)cc(=O)oc2c1` [JW551, 2-isopropylphenyl (2-((2-oxo-4-(trifluoromethyl)-2H-chromen-7-yl)oxy)ethyl)carbamate], for which the “IC50 for inhibition of FP-rhodamine labeling of KIAA1363” value against KIAA1363 [1] is listed as “low micromolar”.

On to `Cc1ccc2ccccc2c1OC(=O)NCCc1ccc2ccccc2c1` [JW440, 2-methylnaphthalen-1-yl (2-(naphthalen-2-yl)ethyl)carbamate], for which the “Cross-reactivity with AChE” value on AChE is listed as “little or no activity”. The IC50 is 437 nM on KIAA1363 [2] (mouse brain membrane proteome, inhibitor 30 min before FP-rhodamine (1 μM, 30 min), averages of three replicates, read-out: IC50 (KIAA1363)) and under 1000 nM on KIAA1363 [2] (screened against KIAA1363, Table 1, read-out: IC50 values of less than 1 micromolar). The “Cross-reactivity with HSL” value at HSL is recorded as “little or no activity”.

As to `CC1=CC(C)=[N+]2C1=Cc1ccc(CCC(=O)NCCNC(=O)Oc3ccccc3C(C)C)n1[B-]2(F)F` [JW576, 5,5-difluoro-7-(3-((2-(((2-isopropylphenoxy)carbonyl)amino)ethyl)amino)-3-oxopropyl)-1,3-dimethyl-5H-dipyrrolo[1,2-c:2′,1′-f][1,3,2]diazaborinin-4-ium-5-uide], the “Labeling of KIAA1363 in heart” value at KIAA1363 [3] (C57BI/6J mice, 5-40 mg/kg, i.p., 4 hr) was “significant labeling”. In addition, the “Time to near-maximal in vivo labeling signals” value at KIAA1363 [3] (JW576 10 mg/kg, post-dosing) is at most 30 min. Moreover, the “KIAA1363 activity in heart by competitive ABPP with FP-Rh” value at KIAA1363 [3] (WT mice, JW576 10 mg/kg, 1 hr) is listed as “substantial reductions”. Further, the “Selectivity for KIAA1363 in vivo (heart proteome)” value at KIAA1363 [3] (additional 70 kDa protein, likely ES1) was “only a single, faint additional probe target”. Further, the IC50 at KIAA1363 [4] is 340 ± 150 nM; against KIAA1363 [5] it was 150 to 170 nM. For the same compound, on KIAA1363 [4] (JW576 1 μM, living PC3 cells), the “Time to near-complete target modification” value is reported as “within an hour”. For the same compound, the “Concentration at which other JW576-protein adducts were observed (trace levels)” value on KIAA1363 [4] (PC3 cells in situ, BODIPY fluorescence scan) was at least 5 µM.
